Data on one molecule can be found in patent publication US10131663B2, “Chemical compounds” (AstraZeneca AB, priority 2016, dated 2018).

The term hepatocyte CLint denotes the capacity of the preparation to metabolise the compound, expressed as a volume cleared per time. Higher therefore signals rapid turnover. What is called IC50 is the concentration at which inhibition is half-maximal. The low end stands for greater potency, the high end for weaker potency. In general, Papp refers to a coefficient for how fast a substance crosses the barrier.

Each structure is given as a SMILES string.

Data set [1] is described as follows: Human hepatocyte assay (metabolic stability). The class given is in vitro ADME. The conditions noted are these: human hepatocytes. How it is done:
The metabolic stability of compounds in human hepatocytes was assessed using the following protocol: • 1. Prepare 10 mM stock solutions of compound and control compounds in appropriate solvent (DMSO). Place incubation medium (L-15 Medium) in a 37° C. water bath, and allow warming for at least 15 minutes prior to use. • 2. Add 80 μL of acetonitrile to each well of the 96-well deep well plate (quenching plate). • 3. In a new 96-well plate, dilute the 10 mM test compounds and the control compounds to 100 μM by combining 198 μL of acetonitrile and 2 μL of 10 mM stock. • 4. Remove a vial of cryopreserved (less than −150° C.) human hepatocytes (LiverPool™ 10 Donor Human hepatocytes obtained from Celsis IVT. Chicago, Ill. (Product No. S01205)) from storage, ensuring that vials remain at cryogenic temperatures until thawing process ensues. As quickly as possible, thaw the cells by placing the vial in a 37° C. water bath and gently shaking the vials. Vials should remain in water bath until all ice crystals have dissolved and are no longer visible. After thawing is complete, spray vial with 70% ethanol, transfer the vial to a bio-safety cabinet. • 5. Open the vial and pour the contents into the 50 mL conical tube containing thawing medium. Place the 50 mL conical tube into a centrifuge and spin at 100 g for 10 minutes. […] Using Cellometer® Vision, count cells and determine the viable cell density. Cells with poor viability (<80% viability) are not acceptable for use. […] Transfer 247.5 μL of hepatocytes into each well of a 96-well cell culture plate. Place the plate on Eppendorf Thermomixer Comfort plate shaker to allow the hepatocytes to warm for 10 minutes. • 8. Add 2.5 μL of 100 μM test compound or control compounds into an incubation well containing cells, mix to achieve a homogenous suspension at 0.5 min, which when achieved, will define the 0.5 min time point. At the 0.5 min time, transfer 20 μL of incubated mixture to wells in a “Quenching plate” followed by vortexing. • 9. Incubate the plate at 37° C. at 900 rpm on an Eppendorf Thermomixer Comfort plate shaker. […] Centrifuge the quenching plates for 20 minutes at 4,000 rpm. 4 different compounds are pooled into one cassette and used for LC/MS/MS analysis.
All calculations were carried out using Microsoft Excel. Peak areas were determined from extracted ion chromatograms. In vitro intrinsic clearance (in vitro Clint, in […]) of parent compound was determined by regression analysis of the Ln percent parent disappearance vs. time curve.
V=incubation volume (0.25 mL);
N=number of hepatocytes per well (0.25×10^6 cells).

The target in data set [2] is Estrogen Receptor (ERα) in MCF-7 cells (Homo sapiens (Human), UniProt P03372). Briefly: Western blotting assay, ER down-regulation in MCF-7. The conditions noted are these: 100 nM compound, 48 h, normalised to 100 nM fulvestrant. The data set is classed as cell-based. The essentials:
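Cells treated with compounds at 100 nM or 0.1% DMSO vehicle for 48 h at 37 °C, then lysed; ERα detected by western blot with anti-ERα (SP1) rabbit monoclonal. Down-regulation normalised to vehicle (0%) and 100 nM fulvestrant (100%) run on the same gel.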
A general note: A western blot detects proteins with antibodies after separation by electrophoresis.

In the next data set the target is hERG potassium channel (Homo sapiens (Human), UniProt Q12809). Briefly: hERG binding assay (automated patch clamp, CHO cells). The conditions noted are these: CHO cell line, Nanion Syncropatch 384PE. The data set is classed as cell-based. The procedure, abridged: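 CHO cells on automated patch clamp; compounds tested in quadruplicate. Currents evoked every 15 s from −80 mV holding by a 500 ms step to 60 mV then 500 ms to −40 mV.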
In general terms: Block of hERG is tested as a sign of cardiac risk.

Data set [3] in a line: Human Caco-2 passive permeability A to B Papp. The class given is in vitro ADME. The conditions noted are these: apical pH 6.5, basolateral pH 7.4, efflux inhibitor cocktail. How it is done:
An automated assay was used to determine the passive permeability of compounds in Caco-2 cell monolayers carried out over 2 hours with an apical pH of 6.5 and basolateral pH of 7.4. The Caco-2 AB inhibition assay is carried out with chemical inhibition of the three major efflux transporters ABCB1 (P-gp), ABCG2 (BCRP) and ABCC2 (MRP2) in Caco-2 cells. Incubation of both apical and basolateral is carried out with a cocktail of inhibitors (50 μM quinidine, 20 μM sulfasalazine and 100 μM benzbromarone). Samples were analyzed through LC/MS/MS to estimate the apparent permeability coefficients (Papp) of compounds across Caco-2 cell monolayers and results are quoted in units of ×10^−6 cm/s.

Estrogen Receptor (ERα) in MCF-7 cells, sequence (P03372 whole entry): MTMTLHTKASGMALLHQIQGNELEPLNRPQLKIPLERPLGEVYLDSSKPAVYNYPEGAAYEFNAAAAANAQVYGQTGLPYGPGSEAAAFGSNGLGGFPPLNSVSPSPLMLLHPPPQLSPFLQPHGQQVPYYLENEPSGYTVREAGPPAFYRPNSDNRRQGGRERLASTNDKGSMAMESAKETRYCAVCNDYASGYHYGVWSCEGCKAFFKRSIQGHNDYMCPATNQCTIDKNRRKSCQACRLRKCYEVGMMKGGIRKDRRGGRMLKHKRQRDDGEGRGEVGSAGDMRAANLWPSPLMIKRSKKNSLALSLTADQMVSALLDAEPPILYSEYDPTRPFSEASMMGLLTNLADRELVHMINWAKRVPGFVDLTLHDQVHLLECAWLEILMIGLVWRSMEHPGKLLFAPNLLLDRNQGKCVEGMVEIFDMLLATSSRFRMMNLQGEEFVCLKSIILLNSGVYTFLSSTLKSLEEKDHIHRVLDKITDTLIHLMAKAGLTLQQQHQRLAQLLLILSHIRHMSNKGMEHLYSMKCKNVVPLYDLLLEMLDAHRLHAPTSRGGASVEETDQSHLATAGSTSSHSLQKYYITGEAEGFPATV
hERG potassium channel, sequence (Q12809 whole entry): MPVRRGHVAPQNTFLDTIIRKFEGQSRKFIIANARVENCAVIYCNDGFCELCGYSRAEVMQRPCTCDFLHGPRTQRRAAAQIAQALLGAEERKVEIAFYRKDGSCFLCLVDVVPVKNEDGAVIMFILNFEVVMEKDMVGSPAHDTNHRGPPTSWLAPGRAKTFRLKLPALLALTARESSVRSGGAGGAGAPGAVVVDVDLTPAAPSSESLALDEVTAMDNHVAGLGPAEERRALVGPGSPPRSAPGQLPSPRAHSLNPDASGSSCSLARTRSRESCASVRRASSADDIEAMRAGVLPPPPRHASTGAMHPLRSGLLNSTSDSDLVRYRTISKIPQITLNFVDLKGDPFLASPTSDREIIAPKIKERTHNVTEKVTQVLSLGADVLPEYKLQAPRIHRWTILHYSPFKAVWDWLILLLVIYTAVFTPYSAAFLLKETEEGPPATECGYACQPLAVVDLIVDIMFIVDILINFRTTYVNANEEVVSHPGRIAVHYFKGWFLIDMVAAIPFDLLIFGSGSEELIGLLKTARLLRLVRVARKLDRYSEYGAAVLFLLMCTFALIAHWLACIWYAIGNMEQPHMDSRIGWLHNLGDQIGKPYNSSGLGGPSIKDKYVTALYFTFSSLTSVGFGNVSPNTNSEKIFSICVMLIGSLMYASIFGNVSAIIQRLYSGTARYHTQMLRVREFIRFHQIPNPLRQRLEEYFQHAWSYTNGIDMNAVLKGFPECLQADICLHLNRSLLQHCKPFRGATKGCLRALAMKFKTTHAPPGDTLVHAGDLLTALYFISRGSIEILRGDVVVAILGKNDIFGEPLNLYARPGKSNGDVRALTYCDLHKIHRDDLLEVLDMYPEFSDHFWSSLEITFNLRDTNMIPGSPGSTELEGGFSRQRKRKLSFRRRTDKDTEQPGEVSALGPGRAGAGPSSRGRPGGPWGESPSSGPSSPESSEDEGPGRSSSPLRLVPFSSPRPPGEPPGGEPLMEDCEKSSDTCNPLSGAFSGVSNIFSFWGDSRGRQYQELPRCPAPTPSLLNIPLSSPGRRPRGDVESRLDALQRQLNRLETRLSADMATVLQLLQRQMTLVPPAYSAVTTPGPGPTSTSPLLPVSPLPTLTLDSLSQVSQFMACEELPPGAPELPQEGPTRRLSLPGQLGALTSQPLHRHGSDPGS

In data set [1], `COc1cc(NC2CN(CCCF)C2)ccc1[C@@H]1c2ccc3[nH]ncc3c2C[C@@H](C)N1CC(F)(F)F` [Example 28, 1-(3-fluoropropyl)-N-(3-methoxy-4-((6S,8R)-8-methyl-7-(2,2,2-trifluoroethyl)-6,7,8,9-tetrahydro-3H-pyrazolo[4,3-f]isoquinolin-6-yl)phenyl)azetidin-3-amine] showed a hepatocyte CLint at 1 µM of 5 µL/min/1e6 cells. Further, the “MCF7 Western % ER deg vs Fv” value in data set [2] was determined as 95%. The molecule further registered an IC50 at hERG potassium channel of 7.8 µM. This molecule yielded a Papp at 2 h in data set [3] of 24 ×10⁻⁶ cm/s.
